In patent US9598423B2 (BRISTOL-MYERS SQUIBB COMPANY, priority 2013, dated 2017) one finds IC50 data, which are given here for 29 compounds.

Test [1] deals with CK1ε (Homo sapiens (Human), UniProt P49674). Kind of test: CK1ε kinase assay (Caliper LABCHIP electrophoretic separation of fluoresceinated peptide substrate and product). It is filed as biochemical. Conditions: 200 pM CK1ε, 50 μM ATP, 1.5 μM peptide substrate, 22 hours at room temperature; read-out: CK1ε (IC50). On the procedure:
(§1) CK1ε and CK1δ Kinase Assays
(§2) The kinase assay was performed in V-bottom 384-well plates. […] The reaction was incubated at room temperature for 22 hours and terminated by adding 45 μl of 35 mM EDTA to each sample. The reaction mixture was analyzed on the Caliper LABCHIP®3000 (Caliper, Hopkinton, Mass.) by electrophoretic separation of the unphosphorylated substrate and phosphorylated product. […] Compounds were dissolved at 10 mM in dimethylsulfoxide (DMSO) and evaluated at eleven concentrations. IC50 values were derived by non-linear regression analysis.

Test [2] has as its target CK1δ (Homo sapiens (Human), UniProt P48730). Put plainly: CK1δ kinase assay (Caliper LABCHIP electrophoretic separation of fluoresceinated peptide substrate and product). It is filed as biochemical. The following applies: 200 pM CK1δ, 50 μM ATP, 1.5 μM peptide substrate, 22 hours at room temperature; read-out: CK1δ (IC50). As for the experimental part: as §1, §2

Sequence of CK1δ (P48730 whole entry): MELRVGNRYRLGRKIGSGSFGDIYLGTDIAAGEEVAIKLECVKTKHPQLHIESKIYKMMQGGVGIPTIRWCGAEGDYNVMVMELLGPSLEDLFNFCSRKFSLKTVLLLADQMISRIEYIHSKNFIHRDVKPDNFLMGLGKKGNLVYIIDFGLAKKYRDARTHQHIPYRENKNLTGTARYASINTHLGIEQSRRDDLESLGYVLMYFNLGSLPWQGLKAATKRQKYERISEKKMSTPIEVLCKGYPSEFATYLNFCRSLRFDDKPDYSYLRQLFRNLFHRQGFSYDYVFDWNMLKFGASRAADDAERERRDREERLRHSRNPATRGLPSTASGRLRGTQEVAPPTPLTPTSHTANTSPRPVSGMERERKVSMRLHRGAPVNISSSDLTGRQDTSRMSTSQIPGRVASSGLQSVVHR
Sequence of CK1ε (P49674 whole entry): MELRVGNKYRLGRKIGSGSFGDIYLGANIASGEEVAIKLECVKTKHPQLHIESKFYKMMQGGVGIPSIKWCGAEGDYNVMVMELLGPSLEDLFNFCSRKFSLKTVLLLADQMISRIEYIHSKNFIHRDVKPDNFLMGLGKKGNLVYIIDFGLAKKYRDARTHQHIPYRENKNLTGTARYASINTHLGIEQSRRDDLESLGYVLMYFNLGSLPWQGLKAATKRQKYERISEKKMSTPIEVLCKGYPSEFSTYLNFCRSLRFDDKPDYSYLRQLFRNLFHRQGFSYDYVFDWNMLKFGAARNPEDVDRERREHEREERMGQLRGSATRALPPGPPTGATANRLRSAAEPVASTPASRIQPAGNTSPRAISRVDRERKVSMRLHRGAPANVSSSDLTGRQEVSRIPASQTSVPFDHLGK

The term IC50 denotes the midpoint of a concentration-inhibition curve. On to `NC(=O)c1c(-c2ccc(Cl)c(Cl)c2)nn2c1CN(C(=O)Nc1cc(F)cc(C(F)(F)F)c1)CC2` [Compound 212, 2-(3,4-Dichlorophenyl)-N^5-(3-fluoro-5-(trifluoromethyl)phenyl)-6,7-dihydropyrazolo [1,5-a]pyrazine-3,5(4H)-dicarboxamide], for which the IC50 in test [1] and in test [2] was 0.01 to 10 nM each time.

`Cn1cc2c(F)cc(-c3nn4c(c3C(N)=O)CN(C(=O)Nc3ccc(C#N)cc3)CC4)cc2n1` [Compound 328]: the IC50 in test [1] and in test [2] was 10 to 100 nM each time. Regarding `NC(=O)c1c(-c2cccc(F)c2)nn2c1CN(C(=O)Nc1cc(C(F)(F)F)cc(C(F)(F)F)c1)CC2` [Compound 53, N^5-(3,5-Bis(trifluoromethyl)phenyl)-2-(3-fluorophenyl)-6,7-dihydropyrazolo[1,5-a]pyrazine-3,5(4H)-dicarboxamide], the IC50 in test [1] and in test [2] was 0.01 to 10 nM throughout. `N#Cc1ccc(NC(=O)N2Cc3c(C(N)=O)c(-c4cccc(Cl)c4)nn3C3(CC3)C2)cc1` [Compound A86, 2′-(3-Chlorophenyl)-N^5′-(4-cyanophenyl)-4′H-spiro[cyclopropane-1,7′-pyrazolo[1,5-a]pyrazine]-3′,5′(6′H)-dicarboxamide]: the half-inhibitory concentration (IC50) in test [1] and in test [2] was 0.01 to 10 nM in each case. With `N#Cc1ccc(NC(=O)N2CCn3nc(-c4cc(F)cc(Cl)c4)c(C(N)=O)c3C2)cc1Cl` [Compound 222, N^5-(3-Chloro-4-cyanophenyl)-2-(3-chloro-5-fluorophenyl)-6,7-dihydropyrazolo[1,5-a] pyrazine-3,5(4H)-dicarboxamide], the concentration for half-maximal inhibition (IC50) in test [1] and in test [2] was 0.01 to 10 nM each time.

In the case of `Cc1nc2cc(-c3nn4c(c3C(N)=O)CN(C(=O)Nc3ccc(C#N)cc3)CC4)cc(Cl)c2o1` [Compound 311, 2-(7-Chloro-2-methylbenzo[d]oxazol-5-yl)-N^5-(4-cyanophenyl)-6,7-dihydropyrazolo[1,5-a]pyrazine-3,5(4H)-dicarboxamide], the IC50 in test [1] and in test [2] was 0.01 to 10 nM throughout. `Cc1cc(C)cc(-c2nn3c(c2C(N)=O)CN(C(=O)Nc2ccc(C#N)cc2)CC3)c1` [Compound 275, N^5-(4-Cyanophenyl)-2-(3,5-dimethylphenyl)-6,7-dihydropyrazolo[1,5-a] pyrazine-3,5(4H)-dicarboxamide]: the IC50 in test [1] and in test [2] was 0.01 to 10 nM each time. In the case of `Cc1cc(F)cc(-c2nn3c(c2C(N)=O)CN(C(=O)Nc2ccc4c(c2)OC(F)(F)O4)CC3)c1` [Compound 227, N^5-(2,2-Difluorobenzo[d] [1,3]dioxol-5-yl)-2-(3-fluoro-5-methylphenyl)-6,7-dihydropyrazolo[1,5-a] pyrazine-3,5(4H)-dicarboxamide], the concentration for half-maximal inhibition (IC50) in test [1] and in test [2] was 0.01 to 10 nM throughout. Take `N#Cc1ccc(NC(=O)N2CCn3nc(-c4cccc(F)c4)c(C(N)=O)c3C2)cc1C(F)(F)F` [Compound 38, N^5-(4-Cyano-3-(trifluoromethyl)phenyl)-2-(3-fluorophenyl)-6,7-dihydropyrazolo[1,5-a]pyrazine-3,5(4H)-dicarboxamide]: the half-inhibitory concentration (IC50) in test [1] and in test [2] was 0.01 to 10 nM each time. Take `N#Cc1ccc(NC(=O)N2Cc3c(C(N)=O)c(-c4ccc(F)c(Cl)c4)nn3CC23CC3)cc1` [Compound 343, 2′-(3-Chloro-4-fluorophenyl)-N^5′-(4-cyanophenyl)-4′H-spiro[cyclopropane-1,6′-pyrazolo[1,5-a]pyrazine]-3′,5′(7′H)-dicarboxamide]: the IC50 in test [1] and in test [2] was 10 to 100 nM in each case.

As to `CC12CC3CC(C)(C1)CC(NC(=O)N1CCn4nc(-c5cccc(F)c5)c(C(N)=O)c4C1)(C3)C2` [Compound 81, N^5-(3,5-Dimethyladamantan-1-yl)-2-(3-fluorophenyl)-6,7-dihydropyrazolo[1,5-a]pyrazine-3,5(4H)-dicarboxamide], the half-inhibitory concentration (IC50) in test [1] and in test [2] was 0.01 to 10 nM throughout. `N#Cc1ccc(NC(=O)N2CCn3nc(-c4ccc(F)c(Cl)c4)c(C(N)=O)c3C2)nc1` [Compound 193, 2-(3-Chloro-4-fluorophenyl)-N^5-(5-cyanopyridin-2-yl)-6,7-dihydropyrazolo[1,5-a] pyrazine-3,5(4H)-dicarboxamide]: the IC50 in test [1] and in test [2] was 0.01 to 10 nM in each case. For the compound `N#Cc1ccc(NC(=O)N2CCn3nc(-c4cccc(OC(F)(F)F)c4)c(C(N)=O)c3C2)cc1` [Compound 284, N^5-(4-Cyanophenyl)-2-(3-(trifluoromethoxy)phenyl)-6,7-dihydropyrazolo[1,5-a] pyrazine-3,5(4H)-dicarboxamide], the IC50 in test [1] and in test [2] was 10 to 100 nM in each case.

As to `N#Cc1ccc(NC(=O)N2CCn3nc(-c4ccc(F)c(Cl)c4)c(C(=O)NC4CC4)c3C2)cc1` [Compound A65, 2-(3-Chloro-4-fluorophenyl)-N^5-(4-cyanophenyl)-N^3-cyclopropyl-6,7-dihydropyrazolo[1,5-a]pyrazine-3,5(4H)-dicarboxamide], the IC50 in test [1] and in test [2] was 100 to 2000 nM throughout.

For the compound `NC(=O)c1c(-c2cccc(F)c2)nn2c1CN(C(=O)Nc1cncnc1)CC2` [Compound 84, 2-(3-Fluorophenyl)-N^5-(pyrimidin-5-yl)-6,7-dihydropyrazolo[1,5-a]pyrazine-3,5(4H)-dicarboxamide], in test [2], the 50% inhibitory concentration (IC50) lay in the range of 0.01 to 10 nM. As to `NC(=O)c1c(-c2cccc(F)c2)nn2c1CN(C(=O)Nc1ccc(F)c(F)c1)CC2` [Compound 29, N^5-(3,4-Difluorophenyl)-2-(3-fluorophenyl)-6,7-dihydropyrazolo[1,5-a]pyrazine-3,5(4H)-dicarboxamide], the IC50 in test [2] was in the range of 0.01 to 10 nM. Still for that read-out and setting: next, `CSc1cccc(-c2nn3c(c2C(N)=O)CN(C(=O)NC(C)(C)C)CC3)c1` [Compound 150, N^5-(tert-Butyl)-2-(3-(methylthio)phenyl)-6,7-dihydropyrazolo[1,5-a]pyrazine-3,5(4H)-dicarboxamide]: 0.01 to 10 nM; `CC(C)(NC(=O)N1CCn2nc(-c3cccc(F)c3)c(C(N)=O)c2C1)c1ccccc1` [Compound 25, 2-(3-Fluorophenyl)-N^5-(2-phenylpropan-2-yl)-6,7-dihydropyrazolo[1,5-a]pyrazine-3,5(4H)-dicarboxamide]: 0.01 to 10 nM.

In the case of `CC(C)(C)NC(=O)N1CCn2nc(-c3cc(F)cc(F)c3)c(C(N)=O)c2C1` [Compound 105, N^5-(tert-Butyl)-2-(3,5-difluorophenyl)-6,7-dihydropyrazolo[1,5-a]pyrazine-3,5(4H)-dicarboxamide], the half-maximal inhibitory concentration (IC50) in test [2] was in the range of 0.01 to 10 nM.

Take `COc1ccc(NC(=O)N2CCn3nc(-c4cccc(F)c4)c(C(N)=O)c3C2)cc1OC` [Compound 66, N^5-(3,4-Dimethoxyphenyl)-2-(3-fluorophenyl)-6,7-dihydropyrazolo[1,5-a]pyrazine-3,5(4H)-dicarboxamide]: the 50% inhibitory concentration (IC50) in test [2] was in the range of 0.01 to 10 nM. Regarding `CC(=O)N1CCC(NC(=O)N2CCn3nc(-c4cccc(F)c4)c(C(N)=O)c3C2)CC1` [Compound 97], in test [2], the IC50 was in the range of 0.01 to 10 nM.

For the compound `NC(=O)c1c(-c2cccc(F)c2)nn2c1CN(C(=O)Nc1ccnc(Cl)c1)CC2` [Compound 90, N^5-(2-Chloropyridin-4-yl)-2-(3-fluorophenyl)-6,7-dihydropyrazolo[1,5-a]pyrazine-3,5(4H)-dicarboxamide], in test [2], the 50% inhibitory concentration (IC50) was in the range of 0.01 to 10 nM. Same read-out and setting: next, `NC(=O)c1c(-c2cccc(F)c2)nn2c1CN(C(=O)Nc1cc(Cl)ccc1F)CC2` [Compound 33, N^5-(5-Chloro-2-fluorophenyl)-2-(3-fluorophenyl)-6,7-dihydropyrazolo[1,5-a]pyrazine-3,5(4H)-dicarboxamide]: 0.01 to 10 nM. For the compound `COc1cc(F)cc(-c2nn3c(c2C(N)=O)CN(C(=O)NC(C)(C)C)CC3)c1` [Compound 137, N^5-(tert-Butyl)-2-(3-fiuoro-5-methoxyphenyl)-6,7-dihydropyrazolo[1,5-a]pyrazine-3,5(4H)-dicarboxamide], in test [2], the concentration for half-maximal inhibition (IC50) was in the range of 0.01 to 10 nM.

Take `N#Cc1ccc(NC(=O)N2Cc3c(C(N)=O)c(-c4ccc(F)c(Cl)c4)nn3[C@H](C(F)F)C2)cc1Cl` [Compound A18, (S)—N^5-(3-Chloro-4-cyanophenyl)-2-(3-chloro-4-fluorophenyl)-7-(difluoromethyl)-6,7-dihydropyrazolo[1,5-a]pyrazine-3,5(4H)-dicarboxamide]: in test [2], the half-maximal inhibitory concentration (IC50) is 0.01 to 10 nM. Still for that read-out and setting: next, `NC(=O)c1c(-c2cccc(F)c2)nn2c1CN(C(=O)Nc1ccc(F)nc1)CC2` [Compound 87, 2-(3-Fluorophenyl)-N^5-(6-fluoropyridin-3-yl)-6,7-dihydropyrazolo[1,5-a]pyrazine-3,5(4H)-dicarboxamide]: 0.01 to 10 nM; `NC(=O)c1c(-c2cccc(F)c2)nn2c1CN(C(=O)Nc1cccnc1)CC2` [Compound 68, 2-(3-Fluorophenyl)-N^5-(pyridin-3-yl)-6,7-dihydropyrazolo[1,5-a]pyrazine-3,5(4H)-dicarboxamide]: 0.01 to 10 nM. The same measure, in the same setting: next, `NC(=O)c1c(-c2cccc(F)c2)nn2c1CN(C(=O)NC1CCN(S(=O)(=O)C3CC3)CC1)CC2` [Compound 102, N^5-(1-(Cyclopropylsulfonyl)piperidin-4-yl)-2-(3-fluorophenyl)-6,7-dihydropyrazolo[1,5-a]pyrazine-3,5(4H)-dicarboxamide]: 0.01 to 10 nM; `N#Cc1ccc(NC(=O)N2Cc3c(C(N)=O)c(-c4ccc(F)c(Cl)c4)nn3[C@@H](C(F)F)C2)cc1F` [Compound A23, (R)-2-(3-Chloro-4-fluorophenyl)-N^5-(4-cyano-3-fluorophenyl)-7-(difluoromethyl)-6,7-dihydropyrazolo[1,5-a]pyrazine-3,5(4H)-dicarboxamide]: 0.01 to 10 nM.
